Measured values reported in patent US20250326722A1 (SHANGHAI HANSOH BIOMEDICAL CO., LTD., priority 2022, published 2025).

What was measured:
PCSK9 protein = PCSK9 protein (Homo sapiens (Human), UniProt Q8NBP7); assay: Binding experiment: surface plasmon resonance (SPR) binding to PCSK9 protein
Excerpt: • 1. Experimental objective: To detect the action of compounds to bind PCSK9 protein by a conventional surface plasmon resonance (SPR) method.

[1] = system: hyperlipidemia animal model of B6-hPCSK9 transgenic mice; assay: In vivo pharmacodynamics in hyperlipidemia animal model of B6-hPCSK9 transgenic mice; set-up: species or system B6-hPCSK9 transgenic C57 mice; settings: PO administration, Day 14, high-fat feed
Method: The compounds of the present disclosure were evaluated for in vivo pharmacodynamics in a hyperlipidemia animal model of B6-hPCSK9 transgenic mice.
B6-hPCSK9 transgenic C57 mice, 6-8 weeks old, male, purchased from Jiangsu GemPharmatech Co., Ltd.
After delivery to a barrier system, the animals were given one week for acclimatization and began to feed on the high-fat feed. The body weight and feed weight were weighed once a week, and the body weight and food intake thereof were recorded.
a. The animals were grouped by a random grouping method.
c. According to the grouping results, administration with the test drug was started (mode of administration: oral administration; administration volume: 10 mL/kg; frequency of administration: once/day or single administration; administration cycle: 21 days; vehicle: 10% Solutol HS 15/90% Saline).
d. After the test drug was administered, the body weight and feed weight were weighed twice a week and blood was taken once a week.
e. The data was processed with software such as Excel. […] PCSK9 in plasma was detected by ELISA.

LDL-C = settings: combined with a statin; cited from earlier work
[2] = biological target: PCSK9 secreted by HepG2 cells (Homo sapiens (Human), UniProt Q8NBP7); assay: Effect on the concentration of PCSK9 secreted by HepG2 cells (ELISA); assay type: cell-based; settings: 48 hours incubation, read-out: Inhibitory activity on PCSK9, IC50
Sequence of PCSK9 secreted by HepG2 cells (Q8NBP7 153-692): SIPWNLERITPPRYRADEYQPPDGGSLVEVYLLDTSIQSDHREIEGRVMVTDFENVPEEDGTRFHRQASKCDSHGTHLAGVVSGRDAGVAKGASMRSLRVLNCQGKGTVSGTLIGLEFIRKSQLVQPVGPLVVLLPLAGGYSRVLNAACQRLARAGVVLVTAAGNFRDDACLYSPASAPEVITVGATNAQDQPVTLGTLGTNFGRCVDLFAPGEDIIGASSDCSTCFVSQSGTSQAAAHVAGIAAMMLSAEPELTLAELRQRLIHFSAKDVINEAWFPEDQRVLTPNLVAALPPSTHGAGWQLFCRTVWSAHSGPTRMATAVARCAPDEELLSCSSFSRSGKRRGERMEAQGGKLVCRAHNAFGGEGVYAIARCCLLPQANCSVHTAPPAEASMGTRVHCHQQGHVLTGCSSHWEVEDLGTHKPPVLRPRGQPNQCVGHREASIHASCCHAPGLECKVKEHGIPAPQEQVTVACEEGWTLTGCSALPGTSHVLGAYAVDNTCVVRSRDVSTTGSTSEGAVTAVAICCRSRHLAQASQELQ
Sequence of PCSK9 secreted by HepG2 cells (Q8NBP7 31-152 partner): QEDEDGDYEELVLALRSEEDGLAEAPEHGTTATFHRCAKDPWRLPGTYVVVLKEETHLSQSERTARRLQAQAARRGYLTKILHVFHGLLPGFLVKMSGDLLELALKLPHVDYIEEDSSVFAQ

[3] = Pharmacokinetic determination in mice (plasma); assay type: in vivo, C57BL/6J mice; settings: C57 mice, PO administration, 5 mpk; for AUC(0-inf) / half-life / MRT / Cmax: male, C57BL/6J, mouse, 5 mg/kg; for AUC(0-inf): read-out: Area under the curve AUC0-∞; for half-life: read-out: Half-life t1/2 (converted); for MRT: read-out: Mean residence time MRT; for Cmax: read-out: Plasma concentration Cmax
Method in brief: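 Male C57BL/6J mice (n=3 per route), fasted overnight, got 5 mg/kg PO in 10% Solutol HS15 or 1 mg/kg IV in 5% DMSO/10% Solutol HS15/85% PBS. Orbital blood was sampled at 0.083 (IV only), 0.25, 0.5, 1, 2, 4, 8 and 24 h. EDTA-K2 plasma was quantified by LC-MS/MS for PK parameters.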

Sequence of PCSK9 protein (Q8NBP7 153-692): as the sequence (Q8NBP7 153-692) above

Row | Kd (PCSK9 protein) [nM] | IC50 [2] [nM] | Time to peak tmax [3] [h] | AUC(0-inf) [3] [ng·h/mL] | half-life [3] [h] | MRT [3] [h] | Cmax [3] [ng/mL] | SMILES | LDL-C change, Day 14 ([1]; 6 mpk) [%] | LDL-C reduction (LDL-C) | LDL-C change, Day 14 ([1]; 10 mpk) [%] | LDL-C change, Day 14 ([1]; 3 mpk) [%]
1 | 2.6 | – | – | – | – | – | – | O=c1ccccn1-c1ccc(N[C@H]2CC[C@H](Nc3nc4cc(F)ccn4n3)C2)nc1 [Example 27, 6′-((3-(((1S,3S)-7-fluoro-[1,2,4]triazolo[1,5-a]pyridin-2-yl)amino)cyclopentyl)amino)-2H-[1,3′-bipyridinyl]-2-one] | −31.52 | – | – | –
2 | – | – | – | – | – | – | – | O=C1[C@H](CC[C@H](O)c2ccc(F)cc2)[C@@H](c2ccc(O)cc2)N1c1ccc(F)cc1 [Ezetimibe] | – | 15-20% | – | –
3 | 1.4 | 15500 | 0.5 | 24200 | 4.8 | 2.4 | 12300 | Cc1nccc2c1CN(c1ccc(N[C@H]3CC[C@H](Nc4nc5cc(F)ccn5n4)C3)nc1)C2=O [Example 149, 2-(6-(((1S,3S)-3-((7-fluoro-[1,2,4]triazolo[1,5-a]pyridin-2-yl)amino)cyclopentyl)amino)pyridin-3-yl)-4-methyl-2,3-dihydro-1H-pyrrolo[3,4-c]pyridin-1-one] | – | – | −41.65 | –
4 | 4.8 | 2100 | 1 | 19700 | 3.6 | 3.2 | 5010 | Cc1cc2c(cn1)CN(c1ccc(N[C@H]3CC[C@H](Nc4nc5cc(C(F)(F)F)ccn5n4)C3)nc1)C2=O [Example 156, 6-Methyl-2-(6-(((1S,3S)-3-((7-(trifluoromethyl)-[1,2,4]triazolo[1,5-a]pyridin-2-yl)amino)cyclopentyl)amino)pyridin-3-yl)-2,3-dihydro-1H-pyrrolo[3,4-c]pyridin-1-one] | – | – | −25.97 | –
5 | 1.2 | – | 1 | 11600 | 3.9 | 2.2 | 3870 | O=C1c2ncccc2CN1c1ccc(N[C@H]2CC[C@H](Nc3nc4cc(C(F)(F)F)ccn4n3)C2)nc1 [Example 143, 6-(6-(((1S,3S)-3-((7-(trifluoromethyl)-[1,2,4]triazolo[1,5-a]pyridin-2-yl)amino)cyclopentyl)amino)pyridin-3-yl)-5,6-dihydro-7H-pyrrolo[3,4-b]pyridin-7-one] | – | – | −34.97 | –
6 | – | 24100 | 2 | 52000 | 4.4 | 4.8 | 8230 | Cc1cc2c(cn1)CN(c1ccc(N[C@H]3CC[C@H](Nc4nc5cc(F)ccn5n4)C3)nc1)C2=O [Example 147, 2-(6-(((1S,3S)-3-((7-fluoro-[1,2,4]triazolo[1,5-a]pyridin-2-yl)amino)cyclopentyl)amino)pyridin-3-yl)-6-methyl-2,3-dihydro-1H-pyrrolo[3,4-c]pyridin-1-one] | – | – | – | −23.20
